Experimental data published in ChEMBL document CHEMBL1146541, “New cytotoxic indolic metabolites from a marine Streptomyces” (2003).
Calls of active or inactive are those of the source.

Key:
K562 = assay: Cytotoxicity against human K562 cells; format: functional
LNCaP = assay: Cytotoxicity against human LNCAP cells; format: functional, cell-based
HMEC-1 = assay: Cytotoxicity against human HMEC1 cells; format: functional, cell-based
PANC-1 = assay: Cytotoxicity against human PANC1 cells; format: functional, cell-based
LoVo [1] = assay: Cytotoxicity against human LoVo cells; format: functional, cell-based
LoVo [2] = assay: Cytotoxicity against doxorubicin-resistant human LoVo cells; format: functional, cell-based

Measured: Activity

CC(C)=CCc1ccc2c(CC#N)c[nH]c2c1
inactive: all assays above
